In US20210276967A1 (OSPEDALE SAN RAFFAELE S.R.L., priority 2018, published 2021):

Experiments:
HBV = HBV inhibition in HepAD38 cells, extracellular HBV DNA by direct qPCR; format: cell-based, hepatitis B virus; conditions: Hepatitis B virus
Description: HepAD38 cell line (Ladner et al., Antimicrob Agents Chemother, 1997, 41, 1715-20) was used for HBV inhibition assays. HepAD38 is a subclone, derived from hepatoblastoma cell line HepG2 (ATCC® Number: HB-8065™), that expresses HBV genome under the transcriptional control of a tetracycline-responsive promoter in a TET-OFF system: addition of tetracycline (TET) or doxycycline suppresses HBV replication, while its removal switches on the process allowing HBV viral particles release in the cell supernatant. HepAD38 cell line is maintained in DMEM/F12, supplemented with 10% of fetal bovine serum, 1% of glutamine, 1% of penicillin/streptomycin, 0.4 mg/ml G418 and 0.3 ug/ml tetracycline. For the HBV inhibition assay, doxycycline-free medium is used in order to allow virion production.
HBV inhibition activity in vitro was performed in 96 multiwell plates. During the initial (primary) screening compounds were first tested in triplicates at concentrations of 0.1 μM, 0.5 μM and 1 μM. For selected compounds, an 8-point dose-response curve was obtained using 1:2 serial dilutions (starting from 2.5 μM, 1.25 μM or 0.4 μM, depending on the degree of inhibition observed during the primary screening). From the dose-response curves, half maximal effective concentration (EC50) could be calculated (see also below).
In more detail, compounds—typically dissolved in DMSO stock solutions—were diluted to 2× the final desired concentration in 100 μl of the above medium (without doxycycline) and plated in three replicates in the 96-well plates.
Simultaneously, HepAD38 cells—extensively pre-washed in tetracycline-free medium in order to induce HBV production—were suspended at 2*10^4 cells in 100 μl of tetracycline-free medium and added to each well of the plate, to yield a final assay volume of 200 μl.
DMSO, used for stock solutions and compounds dilutions, is always present in the assays at a final concentration of 0.5%.
Plates were then incubated 96 hours at 37° C. and then subjected to cell viability assays and extracellular HBV quantification, in order to evaluate both the cytotoxic potential and the anti-viral activity of compounds.
Cytotoxicity was assessed by a commercial fluorescence assay that measures the metabolic activity of cells, directly related to cell viability (Cell Titer Blue, Promega). For each compound, cytotoxicity was evaluated at the same concentration employed to evaluate its anti-HBV activity. Anti-HBV activity was evaluated by quantification of extracellular HBV DNA with direct qPCR. In particular, supernatant was collected and centrifuged for cell debris clarification, viral DNA was extracted from virions by addition of lysis buffer (1 mM 1,4-dithiothreitol, 0.2% sodium dodecyl sulphate) and incubated at 95° C. for 10 min. Samples were then diluted 1:40 and real time PCR amplification was performed with SYBR green assay (Power SYBR™ Green PCR Master Mix-Thermo Fisher Scientific) and specific HBV primer (HBV-DF:5′-[…]-3′ (SEQ ID No. 1), HBV-DR:5′-[…]-3′ (SEQ ID No. 2)).
All HBV inhibition or antiviral activity data are typically reported in percent (%) relative to a non-treated reference sample. Excel and Graphpad Prism programs are typically used for data elaboration and EC50 calculation.

HBV genotype D = test: Antiviral activity in HepG2 cells transfected with HBV genotype D plasmid, extracellular HBV DNA qPCR; format: cell-based; conditions: Hepatitis B virus, read-out: HBV inhibition EC50 (Mean ± StD)
Method: HepG2 hepatoma cells transfected with HBV plasmids corresponding to the different isolates were used to perform antiviral assay against different HBV genotypes. HBV plasmids were obtained by cloning fragment containing of 1.1-mer HBV genome into the SacI/SaII sites of pcDNA3.1zeo(−) plasmid (V86520, Thermofisher Scientific). The HepG2 cell line was maintained in DMEM, supplemented with 10% of FBS, 1% glutamine and 1% penicillin/streptomycin.
HBV inhibition activity was determined on different HBV genotypes. For this purpose plasmids pcDNA3.1Zeo(−)-HBV1.1 expressing HBV genotypes A, B, C, D, E were transfected in HepG2 cell line and extracellular HBV quantification was performed by direct qPCR as described above. In detail, cells were seeded at 20,000 cells/well in polylisine coated 96-multiwell plates and 24 h later HBV plasmids were transfected with lipofection using manufacturer's procedure (Lipofectamine 3000 Reagent, Thermofisher Scientific). Five hours after transfection cells were extensively washed with PBS and compounds were added in 8-point dose-response curve in 0.5% DMSO as described above. After 4 days of incubation at 37° C. cells were subjected to cell viability assays and extracellular HBV quantification, in order to evaluate both the cytotoxic potential and the anti-viral activity of compounds, as described above. […]

Row | SMILES | EC50 (HBV; HepAD38, 8-point dose-response, read-out: HBV inh EC50) | EC50 (HBV genotype D) | inhibition at 0.5 µM (HBV; 0.5 μM, HepAD38, 96 hours, read-out: HBV inhibition % (conc μM))
1 | Cc1cc(N)c(S(N)(=O)=O)cc1C(=O)Nc1cc(F)c(F)c(F)c1 [Example E17, 4-amino-2-methyl-5-sulfamoyl-N-(3,4,5-trifluorophenyl)benzamide] | < 1000 nM | 38.7 ± 11.1 nM | –
2 | Nc1ccc(C(=O)Nc2cc(F)c(F)c(F)c2)cc1S(N)(=O)=O [Example E3, 4-amino-3-sulfamoyl-N-(3,4,5-trifluorophenyl)benzamide] | – | – | > 50%
